Test results reported in patent publication US9790228B2, “Heterocyclic kinase inhibitors” (Intellikine LLC, priority 2008, dated 2017).

Legend:
Type in all cases: biochemical
p110δ/p85α = p110δ/p85α (Homo sapiens (Human), UniProt O00329); experiment: PI3K δ inhibition assay (TLC lipid kinase or HTRF)
Procedure: (§1) Class I PI3-Ks can be either purchased (p110α/p85α, p110β/p85α, p110δ/p85α from Upstate, and p110γ from Sigma) or expressed as previously described (Knight et al., 2004). IC50 values are measured using either a standard TLC assay for lipid kinase activity (described below) or a high-throughput membrane capture assay. Kinase reactions are performed by preparing a reaction mixture containing kinase, inhibitor (2% DMSO final concentration), buffer (25 mM HEPES, pH 7.4, 10 mM MgCl2), and freshly sonicated phosphatidylinositol (100 μg/ml). Reactions are initiated by the addition of ATP containing 10 μCi of γ-32P-ATP to a final concentration 10 or 100 μM and allowed to proceed for 5 minutes at room temperature. For TLC analysis, reactions are then terminated by the addition of […] 1N HCl followed by 160 μl CHCl3:MeOH (1:1). The biphasic mixture is vortexed, briefly centrifuged, and the organic phase is transferred to a new tube using a gel loading pipette tip precoated with CHCl3. This extract is spotted on TLC plates and developed for 3-4 hours in a 65:35 solution of n-propanol:1M acetic acid. The TLC plates are then dried, exposed to a phosphorimager screen (Storm, Amersham), and quantitated. For each compound, kinase activity is measured at 10-12 inhibitor concentrations representing two-fold dilutions from the highest concentration tested (typically, 200 μM).
(§2) Other commercial kits or systems for assaying PI3-K activities are available. The commercially available kits or systems can be used to screen for inhibitors and/or agonists of PI3-Ks including but not limited to PI 3-Kinase α, β, δ, and γ. Anr exemplary system is PI3-Kinase (human) HTRF™ Assay from Upstate. […] Briefly, the assay is a time resolved FRET assay that indirectly measures PIP3 product formed by the activity of a PI3-K. The kinase reaction is performed in a microtitre plate (e.g., a 384 well microtitre plate). The total reaction volume is approximately 20 ul per well. In the first step, each well receives 2 ul of test compound in 20% dimethylsulphoxide resulting in a 2% DMSO final concentration. Next, approximately 14.5 ul of a kinase/PIP2 mixture (diluted in 1× reaction buffer) is added per well for a final concentration of 0.25-0.3 ug/ml kinase and 10 uM PIP2. The plate is sealed and incubated for 15 minutes at room temperature. To start the reaction, 3.5 ul of ATP (diluted in 1× reaction buffer) is added per well for a final concentration of 10 uM ATP. The plate is sealed and incubated for 1 hour at room temperature. The reaction is stopped by adding 5 ul of Stop Solution per well and then 5 ul of Detection Mix is added per well. The plate is sealed, incubated for 1 hour at room temperature, and then read on an appropriate plate reader. Data is analyzed and IC50s are generated using GraphPad Prism 5.

p110γ = p110γ (Homo sapiens (Human), UniProt P48736); experiment: PI3K γ inhibition assay (TLC lipid kinase or HTRF)
Chain of p110γ (P48736 whole entry): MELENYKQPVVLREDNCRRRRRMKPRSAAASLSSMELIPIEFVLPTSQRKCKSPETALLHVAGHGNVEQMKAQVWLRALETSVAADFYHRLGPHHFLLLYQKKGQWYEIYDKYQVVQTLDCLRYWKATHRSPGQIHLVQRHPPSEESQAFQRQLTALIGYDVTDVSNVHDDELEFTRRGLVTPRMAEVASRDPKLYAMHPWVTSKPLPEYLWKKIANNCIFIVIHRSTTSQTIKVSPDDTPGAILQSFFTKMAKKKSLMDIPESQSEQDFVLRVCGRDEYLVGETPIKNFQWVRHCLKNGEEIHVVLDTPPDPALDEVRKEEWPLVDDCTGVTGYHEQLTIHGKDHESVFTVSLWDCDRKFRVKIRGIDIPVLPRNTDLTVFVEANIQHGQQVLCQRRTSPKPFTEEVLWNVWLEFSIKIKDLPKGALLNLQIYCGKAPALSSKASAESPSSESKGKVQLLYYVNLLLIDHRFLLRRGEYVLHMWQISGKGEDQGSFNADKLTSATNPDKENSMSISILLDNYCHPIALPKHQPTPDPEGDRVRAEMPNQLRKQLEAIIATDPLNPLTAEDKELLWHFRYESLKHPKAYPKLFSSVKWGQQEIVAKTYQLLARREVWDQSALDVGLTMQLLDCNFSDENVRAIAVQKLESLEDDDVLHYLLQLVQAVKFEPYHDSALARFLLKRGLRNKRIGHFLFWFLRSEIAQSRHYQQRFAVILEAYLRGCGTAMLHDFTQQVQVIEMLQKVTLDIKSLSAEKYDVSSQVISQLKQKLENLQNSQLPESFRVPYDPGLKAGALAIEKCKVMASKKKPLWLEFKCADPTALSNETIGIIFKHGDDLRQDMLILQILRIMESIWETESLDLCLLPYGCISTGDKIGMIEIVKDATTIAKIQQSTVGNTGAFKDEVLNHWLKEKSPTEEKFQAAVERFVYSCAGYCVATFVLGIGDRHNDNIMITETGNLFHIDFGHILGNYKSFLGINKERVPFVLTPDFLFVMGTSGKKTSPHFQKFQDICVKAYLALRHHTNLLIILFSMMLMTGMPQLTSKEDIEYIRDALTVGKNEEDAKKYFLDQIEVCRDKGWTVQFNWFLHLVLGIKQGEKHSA
Procedure: as §1, §2

p110α/p85α = p110α/p85α (Homo sapiens (Human), UniProt P42336); experiment: PI3K α inhibition assay (TLC lipid kinase or HTRF)
Chain of p110α/p85α (P42336 whole entry): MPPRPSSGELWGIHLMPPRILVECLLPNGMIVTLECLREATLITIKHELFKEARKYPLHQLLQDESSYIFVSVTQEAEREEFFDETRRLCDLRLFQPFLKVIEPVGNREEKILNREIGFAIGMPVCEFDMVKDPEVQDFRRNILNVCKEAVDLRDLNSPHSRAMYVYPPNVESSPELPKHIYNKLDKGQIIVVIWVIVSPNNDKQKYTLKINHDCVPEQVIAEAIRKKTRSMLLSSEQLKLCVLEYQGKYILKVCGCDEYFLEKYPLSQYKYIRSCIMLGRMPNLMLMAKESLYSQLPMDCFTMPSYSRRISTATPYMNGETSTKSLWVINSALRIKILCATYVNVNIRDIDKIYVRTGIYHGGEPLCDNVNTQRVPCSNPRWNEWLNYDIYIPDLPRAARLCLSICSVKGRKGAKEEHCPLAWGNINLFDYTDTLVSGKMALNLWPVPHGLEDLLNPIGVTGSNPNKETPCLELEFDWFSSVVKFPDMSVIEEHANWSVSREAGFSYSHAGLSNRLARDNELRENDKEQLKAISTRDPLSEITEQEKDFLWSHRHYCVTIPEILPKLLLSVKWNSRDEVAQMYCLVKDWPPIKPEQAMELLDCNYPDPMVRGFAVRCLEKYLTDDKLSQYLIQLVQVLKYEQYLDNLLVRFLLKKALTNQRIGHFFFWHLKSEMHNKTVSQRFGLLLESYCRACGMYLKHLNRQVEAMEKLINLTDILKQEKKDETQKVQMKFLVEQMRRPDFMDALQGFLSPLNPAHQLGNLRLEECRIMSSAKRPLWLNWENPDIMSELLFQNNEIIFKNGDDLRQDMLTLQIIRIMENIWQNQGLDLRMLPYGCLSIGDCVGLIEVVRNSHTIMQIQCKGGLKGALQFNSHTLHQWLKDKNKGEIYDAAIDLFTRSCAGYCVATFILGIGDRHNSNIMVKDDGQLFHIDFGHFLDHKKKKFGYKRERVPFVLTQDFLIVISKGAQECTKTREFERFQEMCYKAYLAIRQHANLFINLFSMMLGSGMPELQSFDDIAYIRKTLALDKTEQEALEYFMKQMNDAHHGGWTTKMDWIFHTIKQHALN
Chain of p110α/p85α (P27986 whole entry partner): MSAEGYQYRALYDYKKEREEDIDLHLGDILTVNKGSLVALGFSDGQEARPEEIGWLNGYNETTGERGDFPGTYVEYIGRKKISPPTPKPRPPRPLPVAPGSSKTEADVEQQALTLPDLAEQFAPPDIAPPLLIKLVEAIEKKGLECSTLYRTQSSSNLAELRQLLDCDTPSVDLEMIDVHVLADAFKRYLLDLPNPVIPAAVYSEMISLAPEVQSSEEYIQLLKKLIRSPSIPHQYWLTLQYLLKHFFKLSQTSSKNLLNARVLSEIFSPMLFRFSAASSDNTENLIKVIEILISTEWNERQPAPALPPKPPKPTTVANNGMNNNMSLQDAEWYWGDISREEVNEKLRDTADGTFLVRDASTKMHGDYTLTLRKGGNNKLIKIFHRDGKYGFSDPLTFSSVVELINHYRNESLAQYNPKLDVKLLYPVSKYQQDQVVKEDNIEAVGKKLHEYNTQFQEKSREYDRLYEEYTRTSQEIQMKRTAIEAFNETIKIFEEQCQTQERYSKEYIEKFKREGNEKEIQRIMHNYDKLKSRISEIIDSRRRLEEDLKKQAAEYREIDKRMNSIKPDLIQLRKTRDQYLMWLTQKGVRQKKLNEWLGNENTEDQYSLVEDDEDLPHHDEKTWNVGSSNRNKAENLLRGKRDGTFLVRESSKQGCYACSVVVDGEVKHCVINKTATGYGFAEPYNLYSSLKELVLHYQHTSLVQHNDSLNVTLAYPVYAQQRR
Procedure: as §1, §2

p110β/p85α = p110β/p85α (Homo sapiens, UniProt P42338); experiment: PI3K β inhibition assay (TLC lipid kinase or HTRF); settings: read-out: PI3K β IC50
Chain of p110β/p85α (P42338 whole entry, looked up): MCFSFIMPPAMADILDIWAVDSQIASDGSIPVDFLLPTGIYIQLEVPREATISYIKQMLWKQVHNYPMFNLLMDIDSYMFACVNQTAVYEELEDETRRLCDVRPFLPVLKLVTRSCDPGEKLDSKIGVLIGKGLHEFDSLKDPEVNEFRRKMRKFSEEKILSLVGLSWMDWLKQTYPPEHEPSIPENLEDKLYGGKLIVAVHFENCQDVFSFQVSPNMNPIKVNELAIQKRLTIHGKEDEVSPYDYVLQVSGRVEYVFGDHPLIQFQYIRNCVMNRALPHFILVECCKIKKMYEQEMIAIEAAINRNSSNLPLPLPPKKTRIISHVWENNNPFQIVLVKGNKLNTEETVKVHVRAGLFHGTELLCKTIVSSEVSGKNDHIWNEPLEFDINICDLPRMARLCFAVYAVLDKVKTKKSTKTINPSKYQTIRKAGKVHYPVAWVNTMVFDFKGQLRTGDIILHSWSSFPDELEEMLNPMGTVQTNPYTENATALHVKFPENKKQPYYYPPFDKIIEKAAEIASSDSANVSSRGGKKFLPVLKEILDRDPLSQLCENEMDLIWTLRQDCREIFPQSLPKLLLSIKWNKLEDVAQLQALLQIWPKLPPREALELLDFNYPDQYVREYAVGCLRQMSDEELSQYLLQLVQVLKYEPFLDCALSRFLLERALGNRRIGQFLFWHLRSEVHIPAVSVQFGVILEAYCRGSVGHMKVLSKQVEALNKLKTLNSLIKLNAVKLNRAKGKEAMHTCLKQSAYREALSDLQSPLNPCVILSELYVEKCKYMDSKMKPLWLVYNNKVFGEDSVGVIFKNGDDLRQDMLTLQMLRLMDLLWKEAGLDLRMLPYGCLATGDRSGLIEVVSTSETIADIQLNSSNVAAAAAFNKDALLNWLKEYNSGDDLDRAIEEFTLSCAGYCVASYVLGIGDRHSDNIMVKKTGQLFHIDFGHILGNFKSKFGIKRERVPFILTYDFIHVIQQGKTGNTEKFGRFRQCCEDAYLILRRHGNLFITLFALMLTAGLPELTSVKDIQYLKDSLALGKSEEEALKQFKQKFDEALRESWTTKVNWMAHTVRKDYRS
Procedure: as §1, §2

Chain of p110δ/p85α (O00329 whole entry): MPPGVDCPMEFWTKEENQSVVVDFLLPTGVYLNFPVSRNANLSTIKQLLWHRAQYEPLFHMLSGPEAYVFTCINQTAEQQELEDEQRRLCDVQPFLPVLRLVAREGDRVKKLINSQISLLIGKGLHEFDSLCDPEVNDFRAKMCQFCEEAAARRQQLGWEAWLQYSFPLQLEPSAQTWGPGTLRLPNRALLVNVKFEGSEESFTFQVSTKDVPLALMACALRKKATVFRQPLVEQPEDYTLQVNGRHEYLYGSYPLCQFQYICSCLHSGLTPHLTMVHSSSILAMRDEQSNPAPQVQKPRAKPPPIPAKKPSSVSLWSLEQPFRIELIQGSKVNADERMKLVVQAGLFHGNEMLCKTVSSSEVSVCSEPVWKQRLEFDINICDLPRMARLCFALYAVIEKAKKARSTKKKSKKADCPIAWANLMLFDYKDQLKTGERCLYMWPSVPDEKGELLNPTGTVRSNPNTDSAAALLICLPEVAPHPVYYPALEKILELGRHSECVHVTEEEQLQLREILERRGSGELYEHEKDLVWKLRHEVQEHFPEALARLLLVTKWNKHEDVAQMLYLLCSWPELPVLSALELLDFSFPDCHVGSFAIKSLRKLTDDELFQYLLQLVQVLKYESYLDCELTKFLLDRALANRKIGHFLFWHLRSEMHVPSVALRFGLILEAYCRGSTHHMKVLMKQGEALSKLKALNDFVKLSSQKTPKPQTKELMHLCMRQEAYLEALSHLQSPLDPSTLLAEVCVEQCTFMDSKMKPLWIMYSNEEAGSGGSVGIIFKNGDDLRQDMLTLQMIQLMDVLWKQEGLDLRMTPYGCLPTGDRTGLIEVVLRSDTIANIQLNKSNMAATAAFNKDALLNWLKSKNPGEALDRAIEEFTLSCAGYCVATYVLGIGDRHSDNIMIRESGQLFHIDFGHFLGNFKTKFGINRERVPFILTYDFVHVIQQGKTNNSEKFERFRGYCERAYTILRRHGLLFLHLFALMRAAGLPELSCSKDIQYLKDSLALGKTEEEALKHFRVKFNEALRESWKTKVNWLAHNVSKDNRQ
Chain of p110δ/p85α (P27986 whole entry partner): as the sequence (P27986 whole entry partner) above

SMILES | IC50 (p110δ/p85α) [µM] | IC50 (p110γ) [µM] | IC50 (p110α/p85α) [µM] | IC50 (p110β/p85α) [µM]
Nc1ncnc2c1c(-c1cccc3[nH]ncc13)nn2Cc1cc2ccccc2nc1N1CCCC1 [Compound 58] | 0.1 to 1 | 0.1 to 1 | – | –
CCC(Nc1ncnc2[nH]cnc12)c1cc2ccccc2nc1N1CCCC1 (stereo not shown) [Compound 53] | 0.1 to 1 | > 1 | – | –
CC(=O)Nc1nc2ccc(-c3nn(Cc4cc5ccccc5nc4-c4ccccc4F)c4ncnc(N)c34)cc2[nH]1 [Compound 183] | 0.1 to 1 | 0.1 to 1 | > 1 | –
COc1ccccc1-c1nc2ccccc2cc1Cn1nc(-c2cccc(O)c2)c2c(N)ncnc21 [Compound 14] | 0.1 to 1 | – | – | –
Nc1ncnc2c1c(-c1ccnc(O)c1)nn2Cc1cc2ccccc2nc1-c1ccccc1 [Compound 178] | > 1 | – | > 1 | > 1
Nc1ncnc2c1c(-c1cccc(O)c1)nn2Cc1cccnc1N1CCCC1 [Compound 123] | > 1 | – | – | –
Nc1ncnc2c1c(-c1ccccc1O)nn2Cc1cc2ccccc2nc1N1CCCC1 [Compound 21] | > 1 | – | – | –
Cc1ccccc1-c1ncccc1Cn1nc(-c2cccc(O)c2)c2c(N)ncnc21 [Compound 120] | > 1 | – | – | –
NC1=NC=NC2C1C(c1ccc(O)nc1)=NN2Cc1cc2ccccc2nc1-c1ccccc1 (stereo not shown) [Compound 162] | – | – | > 1 | > 1
CN(C)c1ncccc1Cn1nc(-c2cccc(O)c2)c2c(N)ncnc21 [Compound 122] | > 1 | – | – | –
Nc1ncc(-c2nn(Cc3cc4ccccc4nc3-c3ccccc3)c3nccc(N)c23)cn1 [Compound 160] | 0.1 to 1 | – | > 1 | > 1
C[C@@H](O)C#Cc1nn(Cc2cc3ccccc3nc2N2CCCC2)c2ncnc(N)c12 [Compound 41] | < 0.1 | – | – | –
CC1CCCN1c1nc2ccccc2cc1Cn1ncc2c(N)ncnc21 (stereo not shown) [Compound 188] | > 1 | – | > 1 | > 1
C[C@@H](O)C#Cc1nn(Cc2cc3ccccc3nc2N2CCN(C)CC2)c2ncnc(N)c12 [Compound 51] | > 1 | – | – | –
Nc1ncnc2c1c(-c1cc(O)cc(F)c1)nn2Cc1cccnc1N1CCCC1 [Compound 124] | > 1 | – | – | –
Nc1ncnc2c1c(-c1ccnc(O)c1)nn2Cc1cc2ccccc2nc1-c1ccccc1F [Compound 177] | > 1 | – | > 1 | > 1
COc1ccccc1-c1nc2ccccc2cc1Cn1nc(C#C[C@@H](C)O)c2c(N)ncnc21 [Compound 18] | > 1 | – | – | –
CC(=O)Nc1nc2ccc(-c3nn(Cc4cc5ccccc5nc4N4CCCC4)c4ncnc(N)c34)cc2s1 [Compound 24] | – | – | 0.1 to 1 | –
CN1CCN(c2nc3ccccc3cc2Cn2nc(I)c3c(N)ncnc32)CC1 [Compound 44] | 0.1 to 1 | > 1 | – | –
C[C@@H](O)C#Cc1nn(Cc2nc3ccccc3nc2N2CCCC2)c2ncnc(N)c12 [Compound 106] | 0.1 to 1 | > 1 | – | –
Cc1ccccc1-c1ncccc1Cn1nc(-c2cc(O)cc(F)c2)c2c(N)ncnc21 [Compound 121] | > 1 | – | – | –
CN1CCN(c2nc3ccccc3cc2Cn2nc(-c3cc(O)cc(F)c3)c3c(N)ncnc32)CC1 [Compound 197] | – | – | – | 0.1 to 1
CC(=O)Nc1nc2ccc(-c3nn(Cc4cc5ccccc5nc4N4CCN(C(C)C)CC4)c4ncnc(N)c34)cc2s1 [Compound 163] | – | – | 0.1 to 1 | < 0.1
CC(=O)Nc1cccc(-c2nn(Cc3cc4ccccc4nc3N3CCCC3)c3ncnc(N)c23)c1 [Compound 27] | > 1 | – | – | –
C[C@@H](O)C#Cc1nc2ccccc2nc1Cn1nc(C#C[C@@H](C)O)c2c(N)ncnc21 [Compound 103] | > 1 | > 1 | – | –
Nc1ncnc2c1c(-c1cccc(O)c1)nn2Cc1cc2c(nc1-c1ccccc1F)CCC2 [Compound 102] | > 1 | – | – | –
